Each structure is given as a SMILES string. Values after ≈ are worked out from the molar mass of the structure shown. Bridge positions count the residues as written; N and C are the ends. Peptide text beside a SMILES is read from it.

1 molecule from PMC10451632, “Site Mutation Improves the Expression and Antimicrobial Properties of Fungal Defense” (Antibiotics, 2023) can be followed below.

The test system of data set [1] is mouse erythrocytes. Put plainly: Hemolytic activity. The data set is classed as cell-based. As to conditions: 128 μg/mL; fresh mouse red blood cells; 0.1% Triton X-100 = 100% hemolysis; mean of three biological replicates. The protocol:
The hemolytic activity of PN7 was evaluated based on the amount of the released hemoglobin from erythrocyte suspensions of healthy mouse blood. Erythrocyte suspensions treated with 0.1% Triton X-100 and saline were used as 100% hemolysis and negative control, respectively.

Data set [2] has as its system S. aureus ATCC 43300. Briefly: Time-killing curves. The format is cell-based, Staphylococcus aureus. As to conditions: for reduction of bacterial counts during the first two hours: initial inoculum 5.15 Log10 CFU/mL, MHB, 37 °C, 250 rpm, triplicate. The protocol: S. aureus ATCC 43300 was cultured to the logarithmic stage, MHB medium was used for adjusting the concentration of bacterial suspension, and PN7 (1×, 2× and 4× MIC), Plectasin (1×, 2× and 4× MIC) and 2× MIC vancomycin (the MIC was 1 μg/mL) were added into the suspensions containing 10^5 CFU/mL bacteria (after the count of viable bacteria detection, the initial inoculation amount was 5.15 Log10 CFU/mL), cultured at 37 °C and 250 rpm. A 100 CFU/mL is considered the detection limit. […] In contrast, the count was reduced by 1.6 Log10 CFU/mL after treatment with 2× MIC vancomycin, an approximately 66% population decrease of target pathogens compared with the PN7 treatment group at the same time point of the second hour. After 4 h, the colony number of the peptide treatment group was almost 0, while that of the vancomycin treatment group was 0 after 8 h, at 4 h later than the PN7 treatment. At 24 h, the number of colonies of only 1× MIC Plectasin treatment group rebounded, while no such phenomenon occurred in the other treatment groups.
S. aureus ATCC 43300 was cultured to the logarithmic stage. MHB medium adjusted the concentration of bacterial suspension, and PN7 (1×, 2× and 4× MIC) was added into the suspensions containing 10^5 CFU/mL bacteria, cultured at 37 °C and 250 rpm. 1×, 2×, 4× MIC Plectasin and 2× MIC vancomycin were used as positive controls, and the group treated without antibiotics was used as the blank controls. Then, 100 μL samples were taken at different time points and were continuously diluted and coated on MHA medium for colony counting. A 100 CFU/mL is considered the detection limit.

Data set [3] has as its system S. enteritidis CVCC 3377. Put plainly: MIC, microtiter broth dilution. The format is cell-based. As to conditions: MHB, 10^5 CFUs/mL, 16–18 h at 37 °C. The protocol:
(§1) The MIC value of PN7 against bacteria was determined by the microtiter broth dilution method. Briefly, bacteria grown to the exponential phase were diluted into MHB; subsequently, 90 μL of bacterial suspension (10^5 CFUs/mL) was mixed with 10 μL of different concentrations of PN7 in a sterilized 96-well microtiter plate (Nunc). MIC values were recorded after incubation for 16–18 h at 37 °C based on the lowest concentrations of peptides in which no visible bacterial growth was observed.
In general terms: Dilution methods test growth across graded concentrations, often in twofold steps.

For data set [4], the system named is S. epidermidis ATCC 35984. Put plainly: MIC, microtiter broth dilution. The data set is classed as cell-based. As to conditions: MHB, 10^5 CFUs/mL, 16–18 h at 37 °C. The protocol: as §1
The test system of data set [5] is S. agalactiae ATCC 13813. Put plainly: MIC, microtiter broth dilution. The data set is classed as cell-based. As to conditions: MHB, 10^5 CFUs/mL, 16–18 h at 37 °C. The protocol: as §1
The test system of data set [6] is Pseudomonas aeruginosa CICC 20625. Put plainly: MIC, microtiter broth dilution. The format is cell-based. As to conditions: MHB, 10^5 CFUs/mL, 16–18 h at 37 °C. The procedure:
as §1

Data set [7] deals with Escherichia coli CVCC 195. Briefly: MIC, microtiter broth dilution. The format is cell-based. As to conditions: MHB, 10^5 CFUs/mL, 16–18 h at 37 °C. The procedure:
as §1

The test system of data set [8] is S. pullorum CVCC 1789. Briefly: MIC, microtiter broth dilution. As to conditions: MHB, 10^5 CFUs/mL, 16–18 h at 37 °C. The data set is classed as cell-based. The procedure:
as §1

Data set [9] concerns S. hyicus NCTC 10350. Briefly: MIC, microtiter broth dilution. The data set is classed as cell-based. As to conditions: MHB, 10^5 CFUs/mL, 16–18 h at 37 °C. The procedure: as §1
Data set [10] deals with Streptococcus. suis CVCC 606. Put plainly: MIC, microtiter broth dilution. The format is cell-based. As to conditions: MHB, 10^5 CFUs/mL, 16–18 h at 37 °C. The procedure:
as §1

Data set [11] concerns Salmonella enterica ATCC 13076. Put plainly: MIC, microtiter broth dilution. The format is cell-based. As to conditions: MHB, 10^5 CFUs/mL, 16–18 h at 37 °C. The procedure:
as §1

Data set [12] relates to S. hyicus 437-2. Put plainly: MIC, microtiter broth dilution. The format is cell-based. As to conditions: MHB, 10^5 CFUs/mL, 16–18 h at 37 °C. The procedure: as §1
Data set [13] deals with S. agalactiae CAU-FRI-4. Put plainly: MIC, microtiter broth dilution. The format is cell-based. As to conditions: MHB, 10^5 CFUs/mL, 16–18 h at 37 °C. The protocol:
as §1

Data set [14] in a line: pH stability, MIC read-out. The data set is classed as physicochemical. As to conditions: pH from 2 to 10, buffers, 37 °C, 4 h, MIC read-out after dilution, triplicate. The protocol: PN7 dissolved in physiological saline solution was prepared into mother liquor with a concentration of 1280 μg/mL and incubated at different temperatures for 1 h. PN7 was dissolved in different pH buffers at 37 °C for 4 h. After double gradient dilution, MIC assays were used to detect the change in antibacterial activity.

Data set [15] has as its system S. aureus ATCC 43300. Briefly: SEM morphological observation. The data set is classed as cell-based, Staphylococcus aureus. As to conditions: 2× MIC, 30 min. The procedure:
To further characterize the bactericidal effects of peptide, SEM was used to visualize the morphological changes. S. aureus ATCC 43300 cells were treated with PN7. Cells for SEM were processed as described previously.

For data set [16], the system named is S. aureus ATCC 43300. Briefly: Post antibiotic effect (PAE). The format is cell-based, Staphylococcus aureus. An excerpt: The post-antibiotic effect reflects the inhibitory effect on the growth of pathogenic bacteria after short contact with drugs, which is related to the strength of the bactericidal activity of drugs. The test method of the PAE of PN7 against S. aureus ATCC 43300 refers to the descriptions in previous studies.

Data set [17] concerns S. aureus ATCC 43300. Briefly: Salt stability, MIC read-out. The data set is classed as cell-based, Staphylococcus aureus. The procedure:
The influence of ions on PN7 activity was determined in two ways.
The first method of operation: PN7 was prepared into 1280 μg/mL mother liquor supplemented with 50, 100, 200, 300, and 500 mM NaCl (or KCl, MgCl2, CaCl2), then was diluted twice gradient by ddH2O. Then, 10 μL was added into 90 μL bacterial solution and cultured for 16–18 h to determine the MIC.
The second method of operation: 10 μL peptide solution and 10 μL NaCl (or KCl, MgCl2, CaCl2) solution with different concentrations were added to 80 μL bacterial solution. The final concentration of ions in the whole system was 50, 100, 150, 200, and 250 mM. The MIC against S. aureus ATCC 43300 was determined.

Data set [18] relates to Gram-negative bacteria such as Escherichia coli, Salmonella, and Pseudomonas aeruginosa. Put plainly: MIC against Gram-negative bacteria. The format is cell-based. As to conditions: Gram-negative bacteria (Table 6). The protocol:
as §1

Regarding `CC[C@H](C)[C@@H]1NC(=O)[C@H](CO)NC(=O)[C@H](CCCCN)NC(=O)[C@@H]2CSSC[C@@H](C(=O)N[C@@H](Cc3ccc(O)cc3)C(=O)O)NC(=O)[C@H](CCCCN)NC(=O)[C@@H]3CSSC[C@H](NC(=O)[C@H](CCCNC(=N)N)NC(=O)CNC(=O)[C@H](CC(=O)O)NC(=O)[C@H](CC(=O)O)NC(=O)[C@H](CCC(=O)O)NC(=O)[C@H](Cc4ccc(O)cc4)NC(=O)[C@H](Cc4c[nH]c5ccccc45)NC(=O)[C@@H]4CCCN4C(=O)CNC(=O)[C@H](CC(N)=O)NC(=O)[C@@H](NC(=O)CNC(=O)[C@H](Cc4ccccc4)NC(=O)CN)CSSC[C@H](NC(=O)[C@H](Cc4ccc(O)cc4)NC(=O)CNC(=O)CNC(=O)[C@H](CCCCN)NC(=O)[C@H](Cc4ccc(O)cc4)NC(=O)CNC(=O)[C@H](CCCCN)NC1=O)C(=O)N[C@@H](C)C(=O)N[C@@H](CCCCN)C(=O)NCC(=O)NCC(=O)N[C@@H](Cc1ccccc1)C(=O)N[C@@H](C(C)C)C(=O)N3)C(=O)N[C@@H](Cc1c[nH]cn1)C(=O)N[C@@H](CC(N)=O)C(=O)N[C@@H](Cc1c[nH]cn1)C(=O)N2` [PN7] (H-GFGCNGPWYEDDGRCHNHCKSIKGYKGGYCAKGGFVCKCY-OH; disulfide 4-30, 15-37, 19-39 (inferred); N-terminus and C-terminus assumed), the hemolysis in [1] is on record as 0.19%. Also, the results for the “reduction of bacterial counts during the first two hours” value in data set [2] (1× MIC), in data set [2] (2× MIC) and in data set [2] (4× MIC) were 2.25 Log10 CFU/mL, 2.42 Log10 CFU/mL and 2.72 Log10 CFU/mL, respectively. Moreover, in [2] (time-kill, 2× MIC), the “time to kill 99% of S. aureus ATCC 43300” value was at most 2 h. Besides, the MIC (commonly the lowest concentration found to suppress growth) in [3] is above 128 µg/mL; in [4] it was 16 µg/mL (≈ 3.63 µM); in data set [5], 2 µg/mL (≈ 0.454 µM); in [6], above 128 µg/mL; in [7], above 128 µg/mL; in [8] it was above 128 µg/mL. The minimal inhibitory concentration (MIC) was 4 µg/mL (≈ 0.908 µM) in data set [9]; 1 µg/mL (≈ 0.227 µM) in [10]; above 128 µg/mL in data set [11]; 8 µg/mL (≈ 1.82 µM) in data set [12]; 1 µg/mL (≈ 0.227 µM) in data set [13]; “over 128 μg/mL” in data set [18]. For the same molecule, in [14], the “pH stability (antibacterial activity)” value is recorded as “stable”. Further, the “cell morphology by SEM” value in data set [15] was “shrinkage only appears in the cell surface”. The entries for the “gap of PAE, PN7 versus vancomycin” value in [16] (1× MIC), in [16] (2× MIC) and in [16] (4× MIC) were 12 times, 3.648 times and 3.513 times, respectively. For the same molecule, the “influence of monovalent cations (Na+ and K+) on activity” value in data set [17] (NaCl or KCl, MIC against S. aureus ATCC 43300) is reported as “no influence”. In addition, the “MIC value after incubation with different ions” value in data set [17] (mother liquor with 50–500 mM salt, then diluted with ddH2O) was “did not change”.
